Tests used:
Assay in all cases: Cell proliferation assay (Alamar Blue)
Format in all cases: cell-based
NCl-H661 = conditions: 144 h; NCl-H661 tumor cell line; 6 days
Method: (§1) 1. Instruments and Materials • Thermo 311 CO2 incubator; Haier biosafety cabinet; Molecular Devices microplate reader; Xiangyi brand L530 desktop low speed centrifuge; Olympus IX51 inverted fluorescence microscope, DMEM, RPMI 1640, MEM, DMEM/F12 1:1 medium, Fetal bovine serum, 0.25% trypsin solution, phosphate buffer (Thermo Fisher Shanghai Co., Ltd.); sigma dimethyl sulfoxide (DMSO), resazurin; 54 commercial tumor cell lines (including 26 liver cancer cell lines). Experimental drugs: compounds 1-12 and active drug Linifanib; chemotherapeutic drug Doxorubicin (HY-15142; Shanghai Qianyuan Biomedical Technology Co., Ltd.).
(§2) 2. Experimental Methods • 2.1 Cultivation of different cell lines • 54 cell lines were cultured in a culture medium containing fetal bovine serum and placed in a 5% CO 2 incubator at 37° C. for incubation. The cells were all grown in an adherent state, and the growth was observed under an inverted microscope, and subculture was performed when the cell confluence rate reached 80%-90%. The proportion and quantity of passage were determined by experimental needs. The ratio of subculture of this cell line was generally 1:2^˜1:3. • 2.2 inhibition effect on the proliferation of different tumor cell lines • Cell test: 54 cell lines in logarithmic growth phase were inoculated in 96-well culture plates at 500^˜1×10^4/well (the optimal seeding density of each cell line was determined in pre-experiment), After incubating at 37° C. for 4 h in a 5% CO2 humidification incubator, added 10 μL of compounds 1-12 or Linifanib to each well, and tested 9 drug concentration gradients for each compound (diluted from the highest concentration of the test by 3.16 times). The solubility of each compound was different at a starting concentration of 30 or 100 μM, respectively. The QC reference compound Doxorubicin was added simultaneously to each cell line test, and the final drug concentrations were 10, 3.16, 1, 0.31, 0.1, 0.03, 0.01, 0.003, and 0.001 μM, respectively. In addition, a positive control group (100% inhibition) and a negative control group (0% inhibition) were set at the same time. The drug group was repeated for 2 wells per concentration, and the positive control group and the negative control group were repeated for 6 wells. After the culture was continued for 6 days in the incubator, AlamarBlue test operation was followed; • AlamarBlue test procedure: Incubated with 10 μL of AlamarBlue reagent per well for 1-4 h, shook for 1-2 min, MD microplate reader EX: 560 nm, EM: 590 nm wavelength to measure fluorescence, recorded the results, calculated the cell inhibition rate of the compound of the invention. Cell inhibition rate (%)=(A0% inhibition−A administration)/(A0% inhibition−A100% inhibition)×100%, and then using the method of nonlinear regression using Graph Pad Prism 5.0 or MATILAB software (usually using four parameters) to graph and obtain a drug dose response curve to obtain an IC50 value of the compound of the present invention acting on a cancer cell line.

MFM-223 = conditions: Homo sapiens, 144 h; MFM-223 tumor cell line; 6 days
Method: as §1, §2

TE-15 = conditions: Homo sapiens, 144 h; TE-15 tumor cell line; 6 days
Method: as §1, §2

SNU387 = conditions: Homo sapiens, SNU-387, 144 h; SNU387 liver cancer cell line; 6 days
Method: as §1, §2

MDA-MB-231 = conditions: Homo sapiens, 144 h; MDA-MB-231 tumor cell line; 6 days
Method: as §1, §2

HT1080 = conditions: Homo sapiens, HT-1080, 144 h; HT1080 tumor cell line; 6 days
Method: as §1, §2

NCl-H1648 = conditions: 144 h; NCl-H1648 tumor cell line; 6 days
Method: as §1, §2

MDA-MB-435S = conditions: Homo sapiens, 144 h; MDA-MB-435S tumor cell line; 6 days
Method: as §1, §2

JHH7 = conditions: 144 h; JHH7 liver cancer cell line; 6 days
Method: as §1, §2

KM12 = conditions: Homo sapiens, 144 h; KM12 tumor cell line; 6 days
Method: as §1, §2

JHH1 = conditions: 144 h; JHH1 liver cancer cell line; 6 days
Method: as §1, §2

AN3CA = conditions: for IC50: Homo sapiens, AN3-CA, 144 h, AN3CA (endometrial cells), 6 days
Method: as §1, §2

LNCAP-clone-FGC = conditions: Homo sapiens, 144 h; LNCAP-clone-FGC tumor cell line; 6 days
Method: as §1, §2

Alexander cells = conditions: 144 h, liver cancer cell line, 6 days
Method: as §1, §2

NCl-H526 = conditions: 144 h; NCl-H526 tumor cell line; 6 days
Method: as §1, §2

HuTu80 = conditions: Homo sapiens, 144 h; HuTu80 tumor cell line; 6 days
Method: as §1, §2

K562 = conditions: Homo sapiens, 144 h; K562 tumor cell line; 6 days
Method: as §1, §2

T.T = conditions: Homo sapiens, TT, 144 h; T.T tumor cell line; 6 days
Method: as §1, §2

LC-2-ad = conditions: Homo sapiens, 144 h; LC-2-ad tumor cell line; 6 days
Method: as §1, §2

SNU182 = conditions: Homo sapiens, SNU-182, 144 h; SNU182 liver cancer cell line; 6 days
Method: as §1, §2

SNU475 = conditions: Homo sapiens, SNU-475, 144 h; SNU475 liver cancer cell line; 6 days
Method: as §1, §2

DU145 = conditions: Homo sapiens, DU-145, 144 h; DU145 tumor cell line; 6 days
Method: as §1, §2

SNU739 = conditions: SNU-739, 144 h; SNU739 liver cancer cell line; 6 days
Method: as §1, §2

| Compound | IC50 (NCl-H661) [µM] | IC50 (SNU387) [µM] | IC50 (MDA-MB-231) [µM] | IC50 (HT1080) [µM] | IC50 (NCl-H1648) [µM] | IC50 (MDA-MB-435S) [µM] | IC50 (LNCAP-clone-FGC) [µM] | IC50 (NCl-H526) [µM] | IC50 (K562) [µM] | IC50 (SNU182) [µM] | IC50 (MFM-223) [µM] | IC50 (TE-15) [µM] | IC50 (JHH7) [µM] | IC50 (KM12) [µM] | IC50 (JHH1) [µM] | IC50 (AN3CA) [µM] | IC50 (Alexander cells) [µM] | IC50 (HuTu80) [µM] | IC50 (T.T) [µM] | IC50 (LC-2-ad) [µM] | other results |
| --- | --- | --- | --- | --- | --- | --- | --- | --- | --- | --- | --- | --- | --- | --- | --- | --- | --- | --- | --- | --- | --- |
| Cc1ccc(F)c(NC(=O)Nc2ccc(-c3cccc4c3c(N)nn4C(=O)CCCCCCCCCCCNC(=O)C[C@H](N)C(=O)N[C@@H](CCC(=O)N[C@@H](CCC(=O)N[C@@H](CCC(=O)N[C@@H](CCC(=O)O)C(=O)O)C(=O)O)C(=O)O)C(=O)O)cc2)c1 [Compound 8] | > 100 | 90.2 | 53.5 | 45.3 | > 100 | 38.5 | > 100 | 100 | > 100 | > 100 | 24 | 42.7 | 20.7 | 12.4 | 35.4 | 3.14 | > 100 | 43.8 | > 100 | 50.2 | difference of IC50 value versus Linifanib (AN3CA; AN3-CA (endometrial cells)): 16.7 times; IC50 (SNU475): 57.5 µM; IC50 (DU145): 20.7 µM; IC50 (SNU739): 64.9 µM |
| Cc1ccc(F)c(NC(=O)Nc2ccc(-c3cccc4c3c(N)nn4C(=O)CCCCCCCCCCCNC(=O)C[C@H](N)C(=O)N[C@@H](CCC(=O)N[C@@H](CCC(=O)N[C@@H](CCC(=O)N[C@@H](CCC(=O)N[C@@H](CCC(=O)N[C@@H](CCC(=O)N[C@@H](CCC(=O)N[C@@H](CCC(=O)N[C@@H](CCC(=O)O)C(=O)O)C(=O)O)C(=O)O)C(=O)O)C(=O)O)C(=O)O)C(=O)O)C(=O)O)C(=O)O)cc2)c1 [Compound 9] | > 100 | > 100 | 81.1 | > 100 | > 100 | > 100 | > 100 | > 100 | > 100 | > 100 | 38.3 | 88.9 | 42.2 | 21.8 | > 100 | 8.42 | > 100 | 73.5 | > 100 | 70.5 | IC50 (SNU475): 77.8 µM; IC50 (DU145): 34.5 µM; IC50 (SNU739): > 100 µM |
| Cc1ccc(F)c(NC(=O)Nc2ccc(-c3cccc4c3c(N)nn4C(=O)CCCCCCCCCCCNC(=O)C[C@H](N)C(=O)O)cc2)c1 [Compound 12] | > 30 | 30.3 | > 30 | > 30 | > 30 | > 30 | > 30 | > 30 | > 30 | 19.5 | > 30 | > 30 | > 30 | > 30 | > 30 | 2.08 | > 30 | > 30 | > 30 | > 30 | IC50 (SNU475): > 30 µM; IC50 (DU145): > 30 µM; IC50 (SNU739): > 30 µM |

Further lines, with some results ahead:

| IC50 (NCl-H661) [µM] | IC50 (SNU387) [µM] | IC50 (MDA-MB-231) [µM] | IC50 (HT1080) [µM] | IC50 (NCl-H1648) [µM] | IC50 (MDA-MB-435S) [µM] | IC50 (LNCAP-clone-FGC) [µM] | IC50 (NCl-H526) [µM] | IC50 (K562) [µM] | IC50 (SNU182) [µM] | Compound | IC50 (MFM-223) [µM] | IC50 (TE-15) [µM] | IC50 (JHH7) [µM] | IC50 (KM12) [µM] | IC50 (JHH1) [µM] | IC50 (AN3CA) [µM] | IC50 (Alexander cells) [µM] | IC50 (HuTu80) [µM] | IC50 (T.T) [µM] | IC50 (LC-2-ad) [µM] | other results |
| --- | --- | --- | --- | --- | --- | --- | --- | --- | --- | --- | --- | --- | --- | --- | --- | --- | --- | --- | --- | --- | --- |
| 5.47 | 10.5 | 3.17 | 8.82 | 6.06 | 13.3 | 5.13 | 4.39 | 3.04 | 13.3 | Cc1ccc(F)c(NC(=O)Nc2ccc(-c3cccc4c3c(N)nn4C(=O)C[C@H](N)C(=O)O)cc2)c1 [Compound 10] | 5.63 | 6.31 | 1.65 | 1.47 | 7.43 | 0.24 | 5.31 | 2.63 | 4.37 | 6.38 | IC50 (SNU475): 3.88 µM; IC50 (DU145): 1.34 µM; IC50 (SNU739): 3.87 µM |
| > 100 | > 100 | 80.4 | 94.4 | > 100 | 87.6 | 70.9 | 92.4 | 33.4 | > 100 | Cc1ccc(F)c(NC(=O)Nc2ccc(-c3cccc4c3c(N)nn4C(=O)CCCCCNC(=O)C[C@H](N)C(=O)O)cc2)c1 [Compound 11] | 26.5 | > 100 | 40 | 28.5 | > 100 | 20.2 | 79.5 | 23.1 | > 100 | 27.5 | IC50 (SNU475): 76.1 µM; IC50 (DU145): 26.4 µM; IC50 (SNU739): 64 µM |
| 13.3 | 12.3 | 4.03 | 6.4 | 7.17 | 10.7 | 11.3 | 7.8 | 10.8 | 15.2 | Cc1ccc(F)c(NC(=O)Nc2ccc(-c3cccc4[nH]nc(N)c34)cc2)c1 [Linifanib, reference compound] | 1.72 | 3.6 | 1.83 | 1.39 | 12.2 | 0.19 | 4.09 | 1.85 | 4.86 | 4.78 | IC50 (SNU475): 5.37 µM; IC50 (DU145): 5.01 µM; IC50 (SNU739): 5.45 µM |

Source: patent US11351151B2, “Compound having anticancer activity and preparation method and application” (3D Medicines (Beijing) Co., Ltd., priority 2016, dated 2022)
